From ChEMBL document CHEMBL1201862, “PubChem BioAssay data set” (2004)
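Exposure lasted 48 hours, with cells grown in 96-well plates and compounds tested at five concentrations. GI50 = concentration required for 50% inhibition of growth.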 Calls of active or inactive are those of the source. Cut-off read from the data, not from the text of the source: active = GI50 up to about 1.1 µM and inactive = higher.

Key:
Experiment in all cases: DTP human tumour cell line panel, 48 h
HCT-15 = system: HCT-15
HOP-62 = system: HOP-62
NCI-H460 = system: NCI-H460
786-0 = system: 786-0
HT-29 = system: HT-29
UACC-62 = system: UACC-62
HOP-92 = system: HOP-92
DU-145 = system: DU-145
SW-620 = system: SW-620
SF-295 = system: SF-295
CCRF-CEM = system: CCRF-CEM
MOLT-4 = system: MOLT-4
KM12 = system: KM12
OVCAR-8 = system: OVCAR-8
IGROV-1 = system: IGROV-1
MCF7 = system: MCF7
MDA-MB-435 = system: MDA-MB-435
SNB-75 = system: SNB-75
Hs-578T = system: Hs-578T
COLO 205 = system: COLO 205

Measured: GI50

CCOC(=O)C(SCCO)C(C(=O)OCC)n1ccc(N)nc1=O (stereo not given)
> 100 µM: HCT-15
inactive: HOP-62 > 100 µM | NCI-H460 > 100 µM | 786-0 > 100 µM | HT-29 > 100 µM | UACC-62 > 100 µM | HOP-92 > 100 µM | DU-145 > 100 µM | SW-620 > 100 µM | SF-295 > 100 µM | CCRF-CEM > 100 µM | MOLT-4 > 100 µM | KM12 > 100 µM | OVCAR-8 > 100 µM | IGROV-1 > 100 µM | MCF7 > 100 µM | MDA-MB-435 > 100 µM | SNB-75 > 100 µM | Hs-578T > 100 µM | COLO 205 > 100 µM

C[C@@]12C[C@@H](c3ccccc3O1)N1CCCCSC1=N2
inactive: HOP-62 > 100 µM | NCI-H460 > 100 µM | 786-0 > 100 µM | HT-29 > 100 µM | UACC-62 > 100 µM | HOP-92 > 100 µM | DU-145 > 100 µM | SW-620 > 100 µM | SF-295 > 100 µM | CCRF-CEM > 100 µM | MOLT-4 > 100 µM | KM12 > 100 µM | OVCAR-8 > 100 µM | IGROV-1 > 100 µM | MCF7 > 100 µM | MDA-MB-435 > 100 µM | SNB-75 > 100 µM | Hs-578T > 100 µM | COLO 205 > 100 µM
> 100 µM: HCT-15

CC(C)[C@@H]1ON1C(C)c1ccccc1 (stereo not given in full)
inactive: HOP-62 > 100 µM | NCI-H460 > 100 µM | 786-0 > 100 µM | HT-29 > 100 µM | UACC-62 > 100 µM | HOP-92 > 100 µM | DU-145 > 100 µM | SW-620 > 100 µM | SF-295 > 100 µM | CCRF-CEM > 100 µM | MOLT-4 > 100 µM | KM12 > 100 µM | OVCAR-8 > 100 µM | IGROV-1 70.6 µM | MCF7 13.7 µM | MDA-MB-435 > 100 µM | SNB-75 > 100 µM | Hs-578T > 100 µM | COLO 205 > 100 µM
79.6 µM: HCT-15
